Measured values taken from the NIST ThermoML archive (doi:10.1016/j.jct.2011.09.028).
Numbers after ± are expanded uncertainties.

Key:
[1] = activity coefficient (dimensionless); of the first substance listed, at infinite dilution; xn = mol fraction of the nth substance listed; conditions: 101 kPa, Liquid, Chromatography, x1 = 0
[2] = 101.33 kPa, Liquid, Vibrating tube method

| Structure (SMILES) | activity coefficient ([1]; 318.15 K) | activity coefficient ([1]; 323.15 K) | activity coefficient ([1]; 333.15 K) | activity coefficient ([1]; 343.15 K) | activity coefficient ([1]; 353.15 K) | mass density ([2]; 288.15 K) [kg/m3] | mass density ([2]; 293.15 K) [kg/m3] | mass density ([2]; 298.15 K) [kg/m3] | mass density ([2]; 303.15 K) [kg/m3] | mass density ([2]; 308.15 K) [kg/m3] | mass density ([2]; 313.15 K) [kg/m3] | mass density ([2]; 318.15 K) [kg/m3] |
| --- | --- | --- | --- | --- | --- | --- | --- | --- | --- | --- | --- | --- |
| CC(C)=O [acetone] + CCn1cc[n+](C)c1.N#C[B-](C#N)(C#N)C#N | 0.437 ± 0.029 | 0.443 ± 0.03 | 0.454 ± 0.03 | 0.466 ± 0.03 | 0.479 ± 0.03 |  |  |  |  |  |  |  |
| Cc1ccccc1 [toluene] + CCn1cc[n+](C)c1.N#C[B-](C#N)(C#N)C#N | 1.68 ± 0.08 | 1.69 ± 0.08 | 1.71 ± 0.09 | 1.72 ± 0.09 | 1.74 ± 0.09 |  |  |  |  |  |  |  |
| COCCOC [1,2-dimethoxyethane] + CCn1cc[n+](C)c1.N#C[B-](C#N)(C#N)C#N | 0.452 ± 0.03 | 0.47 ± 0.03 | 0.505 ± 0.031 | 0.539 ± 0.031 | 0.574 ± 0.032 |  |  |  |  |  |  |  |
| C[N+](=O)[O-] [nitromethane] + CCn1cc[n+](C)c1.N#C[B-](C#N)(C#N)C#N | 0.419 ± 0.029 | 0.421 ± 0.029 | 0.423 ± 0.029 | 0.426 ± 0.029 | 0.429 ± 0.029 |  |  |  |  |  |  |  |
| CCCCCCCC [octane] + CCn1cc[n+](C)c1.N#C[B-](C#N)(C#N)C#N | 64.2 ± 3.3 | 61.2 ± 3.2 | 55.8 ± 2.9 | 51 ± 2.7 | 47 ± 2.4 |  |  |  |  |  |  |  |
| COC(C)=O [methyl ethanoate] + CCn1cc[n+](C)c1.N#C[B-](C#N)(C#N)C#N | 0.653 ± 0.034 | 0.662 ± 0.034 | 0.682 ± 0.034 | 0.7 ± 0.035 | 0.723 ± 0.036 |  |  |  |  |  |  |  |
| CCCCCCC [heptane] + CCn1cc[n+](C)c1.N#C[B-](C#N)(C#N)C#N | 42.4 ± 2.2 | 40.7 ± 2.1 | 37.5 ± 1.9 | 34.8 ± 1.8 | 32.3 ± 1.7 |  |  |  |  |  |  |  |
| C=CCCCCCC [oct-1-ene] + CCn1cc[n+](C)c1.N#C[B-](C#N)(C#N)C#N | 28.8 ± 1.5 | 27.8 ± 1.4 | 26.1 ± 1.4 | 24.6 ± 1.3 | 23.3 ± 1.2 |  |  |  |  |  |  |  |
| CCO [ethanol] + CCn1cc[n+](C)c1.N#C[B-](C#N)(C#N)C#N | 1.3 ± 0.06 | 1.25 ± 0.06 | 1.15 ± 0.05 | 1.07 ± 0.05 | 1 ± 0.04 |  |  |  |  |  |  |  |
| CCCO [propan-1-ol] + CCn1cc[n+](C)c1.N#C[B-](C#N)(C#N)C#N | 1.62 ± 0.08 | 1.55 ± 0.08 | 1.42 ± 0.07 | 1.31 ± 0.06 | 1.22 ± 0.06 |  |  |  |  |  |  |  |
| CO [methanol] + CCn1cc[n+](C)c1.N#C[B-](C#N)(C#N)C#N | 0.917 ± 0.041 | 0.89 ± 0.04 | 0.84 ± 0.039 | 0.795 ± 0.038 | 0.755 ± 0.036 |  |  |  |  |  |  |  |
| CCC(C)=O [butanone] + CCn1cc[n+](C)c1.N#C[B-](C#N)(C#N)C#N | 0.577 ± 0.032 | 0.584 ± 0.032 | 0.605 ± 0.033 | 0.611 ± 0.033 | 0.626 ± 0.033 |  |  |  |  |  |  |  |
| CCC1CCCCC1 [ethylcyclohexane] + CCn1cc[n+](C)c1.N#C[B-](C#N)(C#N)C#N | 318 ± 17 | 323 ± 17 | 333 ± 17 | 343 ± 18 | 353 ± 18 |  |  |  |  |  |  |  |
| ClC(Cl)Cl [trichloromethane] + CCn1cc[n+](C)c1.N#C[B-](C#N)(C#N)C#N | 0.812 ± 0.038 | 0.829 ± 0.038 | 0.863 ± 0.039 | 0.895 ± 0.04 | 0.926 ± 0.041 |  |  |  |  |  |  |  |
| CC1CCCCC1 [methylcyclohexane] + CCn1cc[n+](C)c1.N#C[B-](C#N)(C#N)C#N | 20.4 ± 1.1 | 19.7 ± 1 | 18.4 ± 1 | 17.2 ± 0.9 | 16.3 ± 0.8 |  |  |  |  |  |  |  |
| ClC(Cl)(Cl)Cl [tetrachloromethane] + CCn1cc[n+](C)c1.N#C[B-](C#N)(C#N)C#N | 3.56 ± 0.18 | 3.56 ± 0.18 | 3.55 ± 0.18 | 3.54 ± 0.18 | 3.53 ± 0.18 |  |  |  |  |  |  |  |
| Cc1cccc(C)c1 [1,3-dimethylbenzene] + CCn1cc[n+](C)c1.N#C[B-](C#N)(C#N)C#N | 2.62 ± 0.13 | 2.62 ± 0.13 | 2.63 ± 0.13 | 2.63 ± 0.13 | 2.64 ± 0.14 |  |  |  |  |  |  |  |
| FC(F)(F)C(Cl)Br (configuration not stated) [1-bromo-1-chloro-2,2,2-trifluoroethane] + CCn1cc[n+](C)c1.N#C[B-](C#N)(C#N)C#N | 1.16 ± 0.05 | 1.19 ± 0.05 | 1.28 ± 0.06 | 1.34 ± 0.06 | 1.41 ± 0.07 |  |  |  |  |  |  |  |

Second part, the molecule after the results:

| activity coefficient ([1]; 318.15 K) | activity coefficient ([1]; 323.15 K) | activity coefficient ([1]; 333.15 K) | activity coefficient ([1]; 343.15 K) | activity coefficient ([1]; 353.15 K) | mass density ([2]; 288.15 K) [kg/m3] | mass density ([2]; 293.15 K) [kg/m3] | mass density ([2]; 298.15 K) [kg/m3] | mass density ([2]; 303.15 K) [kg/m3] | mass density ([2]; 308.15 K) [kg/m3] | mass density ([2]; 313.15 K) [kg/m3] | mass density ([2]; 318.15 K) [kg/m3] | Structure (SMILES) |
| --- | --- | --- | --- | --- | --- | --- | --- | --- | --- | --- | --- | --- |
| 0.942 ± 0.042 | 0.947 ± 0.042 | 0.957 ± 0.042 | 0.967 ± 0.043 | 0.978 ± 0.043 |  |  |  |  |  |  |  | c1ccsc1 [thiophene] + CCn1cc[n+](C)c1.N#C[B-](C#N)(C#N)C#N |
| 13.8 ± 0.7 | 13.4 ± 0.7 | 12.5 ± 0.6 | 11.8 ± 0.6 | 11.1 ± 0.6 |  |  |  |  |  |  |  | C1CCCCC1 [cyclohexane] + CCn1cc[n+](C)c1.N#C[B-](C#N)(C#N)C#N |
|  |  |  |  |  | 1044.44 ± 0.26 | 1040.43 ± 0.26 | 1036.44 ± 0.26 | 1032.47 ± 0.26 | 1028.54 ± 0.25 | 1024.64 ± 0.25 | 1020.76 ± 0.25 | CCn1cc[n+](C)c1.N#C[B-](C#N)(C#N)C#N [1-ethyl-3-methylimidazolium tetracyanoborate] |
| 0.656 ± 0.034 | 0.665 ± 0.034 | 0.682 ± 0.034 | 0.698 ± 0.035 | 0.714 ± 0.035 |  |  |  |  |  |  |  | ClCCl [dichloromethane] + CCn1cc[n+](C)c1.N#C[B-](C#N)(C#N)C#N |
| 0.428 ± 0.029 | 0.43 ± 0.029 | 0.43 ± 0.029 | 0.431 ± 0.029 | 0.432 ± 0.029 |  |  |  |  |  |  |  | CC#N [acetonitrile] + CCn1cc[n+](C)c1.N#C[B-](C#N)(C#N)C#N |
| 1.15 ± 0.05 | 1.15 ± 0.05 | 1.17 ± 0.05 | 1.18 ± 0.05 | 1.19 ± 0.05 |  |  |  |  |  |  |  | c1ccccc1 [benzene] + CCn1cc[n+](C)c1.N#C[B-](C#N)(C#N)C#N |
| 0.699 ± 0.035 | 0.709 ± 0.035 | 0.727 ± 0.036 | 0.744 ± 0.036 | 0.761 ± 0.037 |  |  |  |  |  |  |  | C1CCOC1 [tetrahydrofuran] + CCn1cc[n+](C)c1.N#C[B-](C#N)(C#N)C#N |
| 1.63 ± 0.08 | 1.56 ± 0.08 | 1.43 ± 0.07 | 1.32 ± 0.06 | 1.23 ± 0.06 |  |  |  |  |  |  |  | CC(C)O [propan-2-ol] + CCn1cc[n+](C)c1.N#C[B-](C#N)(C#N)C#N |
| 7.07 ± 0.36 | 7.08 ± 0.36 | 7.1 ± 0.37 | 7.11 ± 0.37 | 7.13 ± 0.37 |  |  |  |  |  |  |  | CC(C)OC(C)C [diisopropyl ether] + CCn1cc[n+](C)c1.N#C[B-](C#N)(C#N)C#N |
| 2.77 ± 0.14 | 2.8 ± 0.14 | 2.85 ± 0.15 | 2.9 ± 0.15 | 2.95 ± 0.15 |  |  |  |  |  |  |  | COC(C)(C)C [2-methoxy-2-methylpropane] + CCn1cc[n+](C)c1.N#C[B-](C#N)(C#N)C#N |
| 2.62 ± 0.13 | 2.61 ± 0.13 | 2.61 ± 0.13 | 2.61 ± 0.13 | 2.61 ± 0.13 |  |  |  |  |  |  |  | CCc1ccccc1 [ethylbenzene] + CCn1cc[n+](C)c1.N#C[B-](C#N)(C#N)C#N |
| 0.989 ± 0.043 | 1 ± 0.04 | 1.02 ± 0.05 | 1.04 ± 0.05 | 1.06 ± 0.05 |  |  |  |  |  |  |  | CCOC(C)=O [ethyl acetate] + CCn1cc[n+](C)c1.N#C[B-](C#N)(C#N)C#N |
| 0.528 ± 0.031 | 0.535 ± 0.031 | 0.549 ± 0.031 | 0.563 ± 0.032 | 0.576 ± 0.032 |  |  |  |  |  |  |  | COC(=O)OC [dimethyl carbonate] + CCn1cc[n+](C)c1.N#C[B-](C#N)(C#N)C#N |
